Measured values taken from patent US7205315B2, “Bicyclic imino acid derivatives as inhibitors of matrix metalloproteinases” (Sanofi-Aventis Deutschland GmbH, priority 2003, dated 2007).
Where a name gives a salt, the structure may show the parent alone.

How the values were obtained:
Format in all cases: biochemical
[1] = biological target: T1, catalytic domain of human gelatinase B (MMP-9) (Homo sapiens, UniProt P14780); experiment: Enzyme activity of the catalytic domain of human gelatinase B (MMP-9), fluorogenic substrate; conditions: APMA-activated proenzyme, fluorescence 328/393 nm
T1 construct: enzyme activity of the catalytic domain of human gelatinase B (MMP-9); purchased Roche, Mannheim 1 758 896
Method: e) Determining the enzyme activity of the catalytic domain of human gelatinase B (MMP-9). […] Activation of the proenzyme:
(§1) 2 parts by volume of proenzyme were incubated, at 37° C. for 4 hours, with 1 part by volume of APMA solution. The APMA solution was prepared from a 10 mmol/l solution of p-aminophenylmercuric acetate in 0.1 mmol/l NaOH by diluting it with 3 parts by volume of tris/HCl buffer, pH 7.5 (see below). The pH was adjusted to between 7.0 and 7.5 by adding 1 mmol/l HCl. After the enzyme had been activated, it was diluted with the tris/HCl buffer to a concentration of 4.2 mU/ml.
In order to measure the activity of the enzyme, 10 μl of enzyme solution were incubated for 15 minutes with 10 μl of a 3% (v/v) buffered solution of dimethyl sulfoxide (reaction 1). In order to measure the enzyme inhibitor activity, 10 μl of enzyme solution were incubated with 10 μl of a 3% (v/v) buffered solution of dimethyl sulfoxide which contained the enzyme inhibitor (reaction 2). Both in the case of reaction 1 and in the case of reaction 2, the enzyme reaction was monitored by fluorescence spectroscopy (328 nm (extinction)/393 nm (emission)) after 10 ul of a 3% (v/v) aqueous solution of dimethyl sulfoxide, which contained 0.15 mmol of the substrate/l, had been added.
The enzyme activity was presented as increase in extinction/minute.
The inhibitory effect was calculated as percentage inhibition in accordance with the following formula: % inhibition=100−[(increase in extinction/minute in reaction 2)/(increase in extinction/minute in reaction 1)×100].
The IC50, that is the concentration of inhibitor which is required for 50% inhibition of the enzyme activity, was determined graphically by plotting the percentage inhibitions at different inhibitor concentrations.
The buffer solution contained 0.05% Brij (Sigma, Deisenhofen, Germany) and also 0.1 mol of tris/HCl/l, 0.1 mol of NaCl/l, 0.01 mol of CaCl2/l (pH=7.5). The enzyme solution contained 4.2 mU of the enzyme domain/ml. The substrate solution contained 0.15 mmol of the fluorogenic substrate (7-methoxycoumarin-4-yl)acetyl-Pro-Leu-Gly-Leu-3-(2′,4′-dinitrophenyl)-L-2,3-diaminopropionyl-Ala-Arg-NH2/ (Bachem, Heidelberg, Germany).

[2] = biological target: T2, catalytic domain of human neutrophilic collagenase (MMP-8) (Homo sapiens, UniProt P22894); experiment: Enzyme activity of the catalytic domain of neutrophilic collagenase (MMP-8), fluorogenic substrate; conditions: catalytic domain prepared as described by Ye et al., fluorescence 328/393 nm
T2 construct: of the catalytic domain of human stromelysin (MMP-3) and neutrophilic collagenase (MMP-8); made in house
Method: b) Preparation, and determination of the enzyme activity, of the catalytic domain of human stromelysin (MMP-3) and neutrophilic collagenase (MMP-8).
The two enzymes, i.e. stromelysin (MMP-3) and neutrophilic collagenase (MMP-8), were prepared as described by Ye et al. (Biochemistry; 31 (1992) pages 11231–11235). In order to measure the enzyme activity or the inhibitory effect on the enzyme, 10 μl of enzyme solution were incubated, for 15 minutes, with 10 μl of a 3% (v/v) buffered solution of dimethyl sulfoxide which contained the enzyme inhibitor, where appropriate. After 10 μl of a 3% (v/v) aqueous solution of dimethyl sulfoxide which contained 1 mmol of substrate/l had been added, the enzyme reaction was monitored by fluorescence spectroscopy (328 nm (ex)/393 nm(em)).
(§2) The enzyme activity is presented as increase in extinction/minute.
The buffer solution contained 0.05% Brij (Sigma, Deisenhofen, Germany) as well as 0.1 mol of tris/HCl/l, 0.1 mol of NaCl/l, 0.01 mol of CaCl2/l and 0.1 mol of piperazine-N,N′-bis[2-ethanesulfonic acid]/l (pH=7.5). The MMP-3 enzyme solution contained 2.3 μg, and the MMP-8 enzyme solution contained 0.6 μg, of one of the enzyme domains/ml prepared as described by Ye et al. The substrate solution contained 1 mmol of the fluorogenic substrate (7-methoxycoumarin-4-yl)acetyl-Pro-Leu-Gly-Leu-3-(2′,4′-dinitrophenyl)-L-2,3-diaminopropionyl-Ala-Arg-NH2/l (Bachem, Heidelberg, Germany).

[3] = biological target: T3, catalytic domain of human collagenase-1 (MMP-1) (Homo sapiens, UniProt P03956); experiment: Enzyme activity of the catalytic domain of human collagenase-1 (MMP-1), fluorogenic substrate; conditions: APMA-activated proenzyme, fluorescence 328/393 nm
T3 construct: enzyme activity of the catalytic domain of human collagenase-1 (MMP-1); purchased Biocol, Potsdam MMP1
T3 sequence (P03956 100-269 limits assumed): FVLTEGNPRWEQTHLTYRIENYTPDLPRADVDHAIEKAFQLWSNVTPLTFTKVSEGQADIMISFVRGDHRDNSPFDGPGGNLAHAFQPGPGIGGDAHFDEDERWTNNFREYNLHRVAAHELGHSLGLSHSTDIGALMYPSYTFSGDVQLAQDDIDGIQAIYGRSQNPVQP
Method: a) Determining the enzyme activity of the catalytic domain of human collagenase-1 (MMP-1).
Activation of the proenzyme:
as §1, with “are” for “were”, “1 hour,” for “4 hours,”, “is” for “was”, “diluting” for “diluting it”, “has” for “had”, “2.5 μg/ml.” for “4.2 mU/ml.”
In order to measure the enzyme activity, 10 μl of enzyme solution are incubated for 15 minutes with 10 μl of a 3% (v/v) buffered solution of dimethyl sulfoxide (reaction 1). In order to measure the enzyme inhibitor activity, 10 μl of enzyme solution are incubated with 10 μl of a 3% (v/v) buffered solution of dimethyl sulfoxide which contains the enzyme inhibitor (reaction 2).
Both in the case of reaction 1 and in the case of reaction 2, the enzyme reaction is monitored by fluorescence spectroscopy (328 nm (extinction)/393 nm (emission)) after adding 10 μl of a 3% (v/v) aqueous solution of dimethyl sulfoxide which contains 0.3 mmol of the substrate/l.
as §2
The inhibitory effect is calculated as percentage inhibition using the following formula: % inhibition=100−[(increase in extinction/minute in reaction 2)/(increase in extinction/minute in reaction 1)×100].
The IC50, i.e. the inhibitor concentration which is required for 50% inhibition of the enzyme activity, is determined graphically by plotting the percentage inhibitions at different inhibitor concentrations. The buffer solution contains 0.05% Brij (Sigma, Deisenhofen, Germany) and also 0.1 mol of tris/HCl/l, 0.1 mol of NaCl/l, 0.01 mol of CaCl2/l (pH=7.5).
The enzyme solution contains 2.5 μg of the enzyme domain/ml.
The substrate solution contains 0.3 mmol of the fluorogenic substrate (7-methoxycoumarin-4-yl)acetyl-Pro-Leu-Gly-Leu-3-(2′,4′-dinitrophenyl)-L-2,3-diaminopropionyl-Ala-Arg-NH2/l (Bachem, Heidelberg, Germany).

T2 sequence (P22894 100-262 limits assumed): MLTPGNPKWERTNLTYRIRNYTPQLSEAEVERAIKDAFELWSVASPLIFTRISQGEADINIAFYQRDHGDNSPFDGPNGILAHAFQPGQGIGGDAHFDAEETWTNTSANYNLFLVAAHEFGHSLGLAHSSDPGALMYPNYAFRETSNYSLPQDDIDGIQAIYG
T1 sequence (P14780 107-707 limits assumed): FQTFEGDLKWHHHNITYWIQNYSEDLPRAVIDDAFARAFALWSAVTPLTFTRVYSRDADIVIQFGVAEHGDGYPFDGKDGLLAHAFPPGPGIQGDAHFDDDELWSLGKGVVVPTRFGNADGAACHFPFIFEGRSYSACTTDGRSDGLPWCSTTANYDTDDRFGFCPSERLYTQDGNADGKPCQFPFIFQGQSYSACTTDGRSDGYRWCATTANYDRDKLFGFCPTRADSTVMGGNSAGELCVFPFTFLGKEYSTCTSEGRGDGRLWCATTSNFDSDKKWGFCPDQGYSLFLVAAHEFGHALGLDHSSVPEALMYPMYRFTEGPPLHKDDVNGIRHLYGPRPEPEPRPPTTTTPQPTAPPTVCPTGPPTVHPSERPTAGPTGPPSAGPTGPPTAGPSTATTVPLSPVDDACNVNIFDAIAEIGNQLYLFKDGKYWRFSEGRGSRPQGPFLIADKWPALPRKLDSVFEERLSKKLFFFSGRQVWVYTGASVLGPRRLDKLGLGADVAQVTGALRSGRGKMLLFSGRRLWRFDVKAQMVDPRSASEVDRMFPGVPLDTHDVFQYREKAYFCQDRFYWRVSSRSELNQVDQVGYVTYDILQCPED

Row | Structure (SMILES) | IC50 [1] [nM] | IC50 [2] [nM] | IC50 [3] [nM]
1 | O=C(NO)[C@H]1[C@H]2CCCC[C@H]2CCN1S(=O)(=O)c1ccc(-c2ccc(Cl)cc2)cc1 (single isomer, unassigned) [Example 14, 2-(4′-chlorobiphenyl-4-sulfonyl)decahydroisoquinoline-1-(N-hydroxy)-carboxamide] | 3.5 | 2.2 | 400
2 | O=C(NO)[C@@H]1[C@@H]2CCCC[C@@H]2CCN1S(=O)(=O)c1ccc(-c2ccc(Cl)cc2)cc1 (single isomer, unassigned) [Example 15, 2-(4′-chlorobiphenyl-4-sulfonyl)decahydroisoquinoline-1-(N-hydroxy)-carboxamide] | 4000 | 2000 | 6000
3 | O=C(NO)C1C2CCCCC2CCN1S(=O)(=O)c1ccc(-c2ccc(Cl)cc2)cc1 (stereo not drawn) [Example 3, 2-(4′-chlorobiphenyl-4-sulfonyl)decahydroisoquinoline-1-(N-hydroxy)-carboxamide] | 100 | 3 | 400
4 | O=C(NO)C1C2CCCCC2CCN1S(=O)(=O)c1ccc(Oc2ccccc2)nc1 (stereo not drawn) [Example 5, 2-(6-phenoxypyridine-3-sulfonyl)decahydroisoquinoline-1-(N-hydroxy)-carboxamide trifluoroacetate] | 1.2 | 2.5 | 70
5 | O=C(NO)C1C2CCCCC2CCN1S(=O)(=O)CCc1ccc(-c2ccc(Cl)cc2)cc1 (stereo not drawn) [Example 7, 2-[2-(4′-chlorobiphenyl-4-yl)ethanesulfonyl]decahydroisoquinoline-1-(N-hydroxy)carboxamide] | 3 | 13 | 600
6 | O=C(NO)C1C2CCCCC2CCN1S(=O)(=O)c1ccc(Oc2ccncc2)cc1 (stereo not drawn) [Example 9, 2-[4-(pyridin-4-yloxy)benzenesulfonyl]decahydroisoquinoline-1-(N-hydroxy)carboxamide trifluoroacetate] | 12 | 22 | 1000
7 | COc1ccc(Oc2ccc(S(=O)(=O)N3CCC4CCCCC4C3C(=O)NO)cc2)cc1 (stereo not drawn) [Example 11, 2-[4-(4-methoxyphenoxy)benzenesulfonyl]decahydroisoquinoline-1-(N-hydroxy)carboxamide] | 2 | 2.5 | 220
8 | O=C(NO)C1C2CCCCC2CCN1S(=O)(=O)c1ccc(Oc2ccc(OCC(F)(F)F)cc2)cc1 (stereo not drawn) [Example 13, 2-{4-[4-(2,2,2-trifluoroethoxy)phenoxy]benzenesulfonyl}decahydroisoquinoline-1-(N-hydroxy)carboxamide] | 2 | 4 | 180
9 | O=C(NO)C1C2CCCCC2CCN1S(=O)(=O)c1ccc(-c2ccc(OC(F)(F)F)cc2)cc1 (stereo not drawn) [Example 19, 2-(4′-trifluoromethoxybiphenyl-4-sulfonyl)decahydroisoquinoline-1-(N-hydroxy)carboxamide] | 5 | 10 | 2100
10 | O=C(NO)C1C2CCCCC2CCN1S(=O)(=O)c1ccc(Oc2ccc(F)cc2)cc1 (stereo not drawn) [Example 20, 2-[4-(4-fluorophenoxy)benzenesulfonyl]decahydroisoquinoline-1-(N-hydroxy)carboxamide] | 2 | 3 | 41
11 | O=C(NO)[C@H]1[C@H]2CCCC[C@H]2CCN1S(=O)(=O)c1ccc(Oc2ccc(F)cc2)cc1 [Example 21, 2-[4-(4-fluorophenoxy)benzenesulfonyl]decahydroisoquinoline-1-(N-hydroxy)carboxamide] | 0.45 | 2.3 | 21
12 | O=C(NO)C1C2CCCCC2CCN1S(=O)(=O)c1ccc(Oc2ccc(OC(F)(F)F)cc2)cc1 (stereo not drawn) [Example 23, 2-[4-(4-trifluoromethoxyphenoxy)benzenesulfonyl]decahydroisoquinoline-1-(N-hydroxy)carboxamide] | 2 | 9 | 290
13 | N#Cc1ccc(Oc2ccc(S(=O)(=O)N3CCC4CCCCC4C3C(=O)NO)cc2)cc1 (stereo not drawn) [Example 26, 2-[4-(4-cyanophenoxy)benzenesulfonyl]decahydroisoquinoline-1-(N-hydroxy)carboxamide] | 3 | 16 | 450
